Measurements from US6890919B2, “Atypical antipsychotic agents having low affinity for the D2 receptor” (priority 2001, dated 2005).
Counter-ions that a name gives are not always drawn.

What was measured:
rats [1] = assay: Catalepsy grid-test (motor side-effects); type: in vivo; details: for motor-side-effects (catalepsy): sc, doses 1-40 mg/kg
Procedure: (§1) To document the fact that the compounds cross the blood brain barrier, occupancy at the dopamine D2 receptors using in-vivo occupancy measures was examined in rats. The test compound was injected subcutaneously followed 30 minutes later by an intravenous injection of ^3H-raclopride. The animals were sacrificed 1 hour after drug administration. In animals combining occupancy and catalepsy, rats were tested for catalepsy 10 minutes before sacrifice. Animals were sacrificed by decapitation. Striata and cerebella were rapidly dissected, processed and analyzed as described by Kapur et al. (2000b) Compounds which crossed the blood brain barrier and gave predictable dose-response relationships were then tested to see if they gave catalepsy. Catalepsy is the time-honoured animal model to predict the propensity of compounds to give rise to extrapyramidal side-effects in humans. Catalepsy was measured using a grid-test by a rater blind to the treatment-assignment. The time that animals remained immobile was used as an index of catalepsy by transforming raw-scores into catalepsy scores, with a score of 1 as questionable catalepsy and scores of 2-5 reflecting severity of catalepsy (Ahlenius S et al. 1986).

dopamine D2 receptor = dopamine D2 receptor (Homo sapiens, UniProt P14416); assay: Binding affinity for dopamine D2 receptor, 3H-raclopride as ligand (Seeman 1993)
Sequence of dopamine D2 receptor (P14416 whole entry, species assumed): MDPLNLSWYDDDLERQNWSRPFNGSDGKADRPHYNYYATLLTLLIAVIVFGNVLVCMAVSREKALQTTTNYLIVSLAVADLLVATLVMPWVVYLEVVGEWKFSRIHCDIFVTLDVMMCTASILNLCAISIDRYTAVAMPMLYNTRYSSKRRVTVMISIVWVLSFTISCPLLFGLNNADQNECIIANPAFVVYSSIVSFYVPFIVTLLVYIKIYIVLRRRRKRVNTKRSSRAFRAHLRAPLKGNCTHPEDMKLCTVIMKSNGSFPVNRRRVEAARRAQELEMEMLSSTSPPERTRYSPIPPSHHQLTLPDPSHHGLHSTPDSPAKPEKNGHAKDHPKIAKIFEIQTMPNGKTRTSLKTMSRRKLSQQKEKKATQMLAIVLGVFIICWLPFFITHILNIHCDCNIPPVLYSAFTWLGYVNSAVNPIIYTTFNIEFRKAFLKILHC
Text: As will be appreciated by those skilled in the art, Ki values depend on the method of measurement, pH, radiolabeling technique, tissue type, temperature and type of wash used.

rats [2] = assay: Conditioned avoidance response (CAR), two-way active avoidance shuttlebox; type: in vivo
Procedure: Therefore the new compounds were tested for activity in this model. For conditioned avoidance-response, rats were trained and tested in a computer assisted two-way active avoidance (shuttlebox), with an 80 dB white-noise as a conditioned stimulus, followed ten seconds later by a 0.6 mA shock as the unconditioned stimulus. Details of the procedure have been described elsewhere (Wadenberg M L et al. 2000).

dopamine D2 receptors = target: T1, dopamine D2 receptors (Rattus norvegicus, UniProt P61169); assay: In-vivo D2 receptor occupancy with 3H-raclopride; details: rats; for ED50: rat, sc in acidified saline; for D2 occupancy: dose 1-40 mg/kg/sc in acidified saline, sacrifice 1 hour after drug
T1 construct: Striata and cerebella were rapidly dissected, processed and analyzed as described by Kapur et al. (2000b); from tissue; host or cells: rat brain in vivo (striatum; cerebellum also dissected)
T1 sequence (P61169 whole entry): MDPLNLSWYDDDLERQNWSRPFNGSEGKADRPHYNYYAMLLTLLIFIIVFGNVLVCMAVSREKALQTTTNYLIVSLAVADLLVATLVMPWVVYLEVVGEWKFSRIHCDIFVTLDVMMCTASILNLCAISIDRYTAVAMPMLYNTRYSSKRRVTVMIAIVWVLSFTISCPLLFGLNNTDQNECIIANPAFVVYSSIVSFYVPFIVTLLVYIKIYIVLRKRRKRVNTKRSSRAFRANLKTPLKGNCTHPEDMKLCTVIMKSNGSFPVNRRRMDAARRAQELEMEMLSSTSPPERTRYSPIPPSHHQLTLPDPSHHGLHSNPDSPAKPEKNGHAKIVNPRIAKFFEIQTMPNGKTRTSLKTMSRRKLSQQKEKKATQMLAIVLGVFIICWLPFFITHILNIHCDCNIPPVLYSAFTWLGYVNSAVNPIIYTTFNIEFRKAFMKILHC
Procedure: as §1

FOS protein = assay: FOS immunohistochemistry; type: in vivo; details: rats, two hours after injection; for FOS protein induction in the nucleus accumbens: shell of nucleus accumbens
Procedure: In particular, all antipsychotics induce FOS in the nucleus accumbens regions while those likely to give rise to motor side-effects also induce FOS in the dorsolateral striatum (Robertson et al. 1994). For examining the distribution of FOS protein by the test compound, the test compound was injected into rats and two hours later, the animals were deeply anaesthetized with sodium phenobarbitol (100 mg/kg i.p.) and perfused transcardially, the brains removed and post-fixed. Immunostaining was performed on free-floating forty-micron sections with a rabbit-raised polyclonal primary anti-FOS antiserum (diluted 1:250 and incubated 48 hours at 4° C.) (4-17 aminoacids of human Fos; Oncogene Research Products, Cambridge, Mass., USA). Exposure to a biotinylated goat anti-rabbit secondary antibody (1:600, Vector Laboratories, Burlingame, Calif., USA) followed by incubation with horseradish peroxidase avidin-biotin complex (Vector Laboratories, Vector Laboratories, Burlingame, Calif., USA) was used to visualize the FOS staining. Fos-immunoreactive nuclei were counted within 400×400 μm grid at a magnification of 100× in the shell of nucleus accumbens and dorsolateral striatum.

SMILES | melting point | Ki (dopamine D2 receptor) [nM] | further results
CC(C)N1CCN(C2=Nc3cc(C(F)(F)F)ccc3Oc3ccccc32)CC1 (as salt: HCl) [Example 4, 8-Trifluoromethyl-11-(4-isopropylpiperazin-1-yl)-dibenzo[b,f][1,4]oxazepine.HCl] | 270 °C (dec.) |  | 
CCCCN1CCN(C2=Nc3cc(C(F)(F)F)ccc3Oc3ccccc32)CC1 (as salt: HCl) [Example 5, 8-Trifluoromethyl-11-(4-butylpiperazin-1-yl)-dibenzo[b,f][1,4]oxazepine.HCl] | 240 °C (dec.) |  | 
CN1CCN(C2=Nc3cc(Cl)ccc3Nc3ccccc32)CC1 [Clozapine, reference compound] |  |  | catalepsy (rats [1]; doses up to 20 mg/kg/sc): did not give rise to catalepsy
CCN1CCN(C2=Nc3cc(C(F)(F)F)ccc3Oc3ccccc32)CC1 [Example 1, 8-Trifluoromethyl-11-(4-ethylpiperazin-1-yl)-dibenzo[b,f][1,4]oxazepine] | 76 to 77 °C | 258 | 
OCCN1CCN(C2=Nc3cc(C(F)(F)F)ccc3Oc3ccccc32)CC1 [Example 2, 8-Trifluoromethyl-11-(4-(2′-hydroxyethyl)piperazin-1-yl)-dibenzo[b,f][1,4]oxazepine] | 110 to 111 °C | 414 | 
CC(C)N1CCN(C2=Nc3cc(C(F)(F)F)ccc3Oc3ccccc32)CC1 [Example 4, 8-Trifluoromethyl-11-(4-isopropylpiperazin-1-yl)-dibenzo[b,f][1,4]oxazepine.HCl] |  | 215 | 
CCCCN1CCN(C2=Nc3cc(C(F)(F)F)ccc3Oc3ccccc32)CC1 [Example 5, 8-Trifluoromethyl-11-(4-butylpiperazin-1-yl)-dibenzo[b,f][1,4]oxazepine.HCl] |  | 250 | 
O=C(CCCN1CCC(O)(c2ccc(Cl)cc2)CC1)c1ccc(F)cc1 [haloperidol, reference compound] |  |  | inhibition of avoidance (rats [2]; >0.05 mg/kg/sc, without catalepsy or escape deficits): robust inhibition of avoidance; FOS protein induction in the dorsolateral striatum (FOS protein): resulted in FOS in the dorsolateral striatum; FOS protein induction in the nucleus accumbens (FOS protein): robust FOS induction

Now from value to molecule, other results behind:

melting point | Ki (dopamine D2 receptor) [nM] | SMILES | further results
 | 42 | CCN1CCN(C2=Nc3cc(Cl)ccc3Oc3ccccc32)CC1 [Example 6, 8-Chloro-11-(4-ethylpiperazin-1-yl)-dibenzo[b,F][1,4]oxazepine] | inhibition at 10 mg/kg (rats [2]; Rattus norvegicus, 10 mg/kg/sc): > 50%; motor-side-effects (catalepsy) (rats [1]): No animals showed any evidence of motor-side-effects; ED50 (dopamine D2 receptors): ~5 mg/kg; D2 occupancy (dopamine D2 receptors): 5-81%; FOS protein induction in the dorsolateral striatum (FOS protein): no induction; FOS protein induction in the nucleus accumbens (FOS protein): robust induction
149 to 150 °C | 108 | OCCN1CCN(C2=Nc3cc(Cl)ccc3Oc3ccccc32)CC1 [Example 7, 8-Chloro-11-(4-(2′-hydroxyethyl)piperazin-1-yl)-dibenzo[b,f][1,4]oxazepine] | inhibition at 20 mg/kg (rats [2]; Rattus norvegicus, 20 mg/kg/sc): > 50%; motor-side-effects (catalepsy) (rats [1]): No animals showed any evidence of motor-side-effects; ED50 (dopamine D2 receptors): 10 mg/kg; D2 occupancy (dopamine D2 receptors): 22-75%
90 to 91 °C | 23 | CCCN1CCN(C2=Nc3cc(Cl)ccc3Oc3ccccc32)CC1 [Example 8, 8-Chloro-11-(4-propylpiperazin-1-yl)-dibenzo[b,f][1,4]oxazepine] | 
55 to 56 °C | 150 | CC(C)N1CCN(C2=Nc3cc(Cl)ccc3Oc3ccccc32)CC1 [Example 9, 8-Chloro-11-(4-isopropylpiperazin-1-yl)-dibenzo[b,f][1,4]oxazepine] | 
97 to 98 °C | 28 | CCCCN1CCN(C2=Nc3cc(Cl)ccc3Oc3ccccc32)CC1 [Example 10, 8-Chloro-11-(4-butylpiperazin-1-yl)-dibenzo[b,f][1,4]oxazepine] | 
100 to 101 °C | 63 | CCN1CCN(C2=Nc3cc(Cl)ccc3Sc3ccccc32)CC1 [Example 12, 8-Chloro-11-(4-ethylpiperazin-1-yl)-dibenzo[b,f][1,4]thiazepine] | 
110 to 111 °C | 88 | OCCN1CCN(C2=Nc3cc(Cl)ccc3Sc3ccccc32)CC1 [Example 13, 8-Chloro-11-(4-(2′-hydroxyethyl)piperazin-1-yl)-dibenzo[b,f][1,4]thiazepine] | 
 | 58 | CC(C)N1CCN(C2=Nc3cc(Cl)ccc3Sc3ccccc32)CC1 [Example 15, 8-Chloro-11-(4-isopropylpiperazin-1-yl)-dibenzo[b,f][1,4]thiazepine.HCl] | 
